Results taken from patent publication US5589568A (priority 1994, dated 1996).
Where two headings read alike, the source gives them in different places. Where a SMILES comes first, the peptide text is derived from it. Where no end group is shown, it is not given here. The star is where a group is joined. Dodecyl = CCCCCCCCCCCC*

Assays:
[1] = target: T1, Go (Bos taurus, UniProt P08239); assay: steady state GTPase activity of Go in phospholipid vesicles; format: biochemical, bovine; details: for Turnover number Go 10 μg/ml: 10 μg/ml amine, PE/PC/PS vesicles; for Turnover number Go 10 μg/ml / Turnover number Go 100 μg/ml: 15 min at 20° C.; for Turnover number Go 100 μg/ml: 100 μg/ml amine
T1 construct: proteins were extracted from bovine cerebral cortical membranes; from tissue; host or cells: bovine brain (cerebral cortical membranes)
T1 sequence (P08239 2-354 limits assumed): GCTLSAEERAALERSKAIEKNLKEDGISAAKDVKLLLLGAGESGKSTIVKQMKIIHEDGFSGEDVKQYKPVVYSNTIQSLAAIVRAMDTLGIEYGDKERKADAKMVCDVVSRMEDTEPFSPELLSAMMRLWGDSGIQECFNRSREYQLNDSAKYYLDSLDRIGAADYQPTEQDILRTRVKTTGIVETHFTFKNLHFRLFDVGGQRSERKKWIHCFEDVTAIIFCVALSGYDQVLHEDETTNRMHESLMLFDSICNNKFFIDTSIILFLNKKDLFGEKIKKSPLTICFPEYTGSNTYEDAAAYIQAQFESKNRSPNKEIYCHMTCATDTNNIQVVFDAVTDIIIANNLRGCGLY
T1 sequence (P62871 2-340 partner limits assumed): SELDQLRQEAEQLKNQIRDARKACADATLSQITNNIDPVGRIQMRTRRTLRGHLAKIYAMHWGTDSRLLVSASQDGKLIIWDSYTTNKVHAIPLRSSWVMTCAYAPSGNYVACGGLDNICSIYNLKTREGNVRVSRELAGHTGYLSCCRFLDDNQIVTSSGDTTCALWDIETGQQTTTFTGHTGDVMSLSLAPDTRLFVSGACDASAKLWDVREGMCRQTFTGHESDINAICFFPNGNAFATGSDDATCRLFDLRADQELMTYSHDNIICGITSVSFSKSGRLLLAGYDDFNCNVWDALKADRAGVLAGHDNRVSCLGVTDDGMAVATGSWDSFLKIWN
T1 sequence (P63212 2-68 partner limits assumed): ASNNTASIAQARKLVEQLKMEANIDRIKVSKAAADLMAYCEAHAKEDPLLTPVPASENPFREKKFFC
Description: (§1) G proteins were reconstituted into phospholipid vesicles composed of dioleoyl-PC/bovine brain PS/1-palmitoyl,2-oleoyl-PE (3:4:3) as reported previously by Higashijima et al., 1988, incorporated herein by reference.

[2] = system: Gi; assay: steady state GTPase activity of Gi in phospholipid vesicles; format: biochemical, rabbit; details: 30 min at 30° C.; for Turnover number Gi 10 μg/ml: 10 μg/ml amine; for Turnover number Gi 100 μg/ml: 100 μg/ml amine;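 for all read-outs here: Steady-state GTP hydrolysis by Gi measured in a detergent-free buffer containing 1.1 mM MgSO4 plus the specified guanine nucleotide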
Description: as §1
The concentration of free Mg^2+ in assay medium that contains 5 mM EDTA and no added Mg^2+ is estimated to be 0.1-0.2 nM according to Brandt et al., 1988 and 1983.

[3] = target: Gs (Homo sapiens, UniProt P63092); assay: steady state GTPase activity of Gs; format: biochemical; details: read-out: Gs af. (apparent affinity, estimated by EC50 of GTPase activity)
Chain of Gs (P63092 whole entry): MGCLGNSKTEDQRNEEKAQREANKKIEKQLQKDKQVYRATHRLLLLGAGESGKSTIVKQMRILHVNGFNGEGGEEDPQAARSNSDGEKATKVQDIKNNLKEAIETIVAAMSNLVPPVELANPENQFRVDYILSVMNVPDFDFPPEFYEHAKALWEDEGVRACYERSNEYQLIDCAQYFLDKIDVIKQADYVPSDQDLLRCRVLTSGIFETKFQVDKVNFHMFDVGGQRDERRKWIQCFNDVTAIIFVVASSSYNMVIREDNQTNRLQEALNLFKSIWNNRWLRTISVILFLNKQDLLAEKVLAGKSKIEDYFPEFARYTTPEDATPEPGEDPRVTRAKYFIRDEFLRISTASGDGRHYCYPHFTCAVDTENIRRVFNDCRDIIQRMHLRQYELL
Description: Methods for the assay of steady state GTP hydrolysis and GTPγS binding have been described previously by Higashijima, 1987, and Ferguson, 1986, and incorporated herein by reference. Unless noted otherwise, assays of steady state GTP hydrolysis and of the binding and dissociation of guanine nucleotides were carried out in the buffer described previously, but without detergent and with 1.1 mM MgSO4 and the nucleotide specified in the text. When necessary, the concentration of free Mg^2+ was adjusted using EDTA buffers as described previously by Higashijima, 1987, and incorporated herein by reference.
The data set forth in the following tables represent data generated by the inventors employing the steady state GTP hydrolysis, expressed as molar turnover numbers, are described herein under the "Assay" section of the Experimental Procedures in Example 1. The data has been classified according to the criteria outlined below and the effects of each peptide and modified variant on Go, Gi, and Gs have been tabulated. Table III below sets forth data generated for various mastoparan analogues designed by the inventors, in comparison with the various naturally-occurring mastoparans (e.g., MP, MP-A and MP-T). Table IV sets forth similar data generated for various receptor-based peptides designed by the inventors based on a consideration of various G-protein linked receptors.
Apparent affinity (af.) and apparent efficacy (ef.) were estimated by EC50 and maximum turnover number of GTPase activity.

[4] = Table VI, receptor-based peptides

| Compound | EC50 [1] | EC50 [3, 4] | EC50 ([3]; Table IV) | also measured |
| --- | --- | --- | --- | --- |
| CCCCCCCCCCCCCC[N+](C)(C)Cc1ccccc1.[Cl-] [BAC (C14), reference compound] | – | – | – | Turnover number Go 10 μg/ml [1]: 0.9 min⁻¹; Turnover number Go 100 μg/ml [1]: 0.2 min⁻¹; Turnover number Gi 10 μg/ml [2]: 0.04 min⁻¹; Turnover number Gi 100 μg/ml [2]: < 0.01 min⁻¹ |
| CCCCCCCCCCCCCCCC[N+](C)(C)Cc1ccccc1.[Cl-] [BAC (C16 ), reference compound] | – | – | – | Turnover number Go 10 μg/ml [1]: 1.4 min⁻¹; Turnover number Go 100 μg/ml [1]: 0.08 min⁻¹; Turnover number Gi 10 μg/ml [2]: 0.04 min⁻¹; Turnover number Gi 100 μg/ml [2]: < 0.01 min⁻¹ |
| CCCCCCCCCCCCCCCCCC[N+](C)(C)Cc1ccccc1.[Cl-] [BAC (C18 ), reference compound] | – | – | – | Turnover number Go 10 μg/ml [1]: 1.1 min⁻¹; Turnover number Go 100 μg/ml [1]: 0.3 min⁻¹; Turnover number Gi 10 μg/ml [2]: 0.03 min⁻¹; Turnover number Gi 100 μg/ml [2]: < 0.01 min⁻¹ |
| CCCC[N+](CCCC)(CCCC)Cc1ccccc1.[Cl-] [BzBu3 NCl, reference compound] | – | – | – | Turnover number Go 10 μg/ml [1]: 0.07 min⁻¹; Turnover number Go 100 μg/ml [1]: 0.07 min⁻¹; Turnover number Gi 10 μg/ml [2]: 0.04 min⁻¹; Turnover number Gi 100 μg/ml [2]: 0.04 min⁻¹ |
| CCCCCCCCCCCC[N+](C)(C)C.[Cl-] [C12 Me3 NCl, reference compound] | – | – | – | Turnover number Go 10 μg/ml [1]: 0.1 min⁻¹; Turnover number Go 100 μg/ml [1]: 0.5 min⁻¹; Turnover number Gi 10 μg/ml [2]: 0.04 min⁻¹; Turnover number Gi 100 μg/ml [2]: 0.04 min⁻¹ |
| CCCCCCCCCCCCSC[C@H](NC(=O)[C@@H](NC(=O)[C@@H](NC(=O)CNC(=O)[C@H](CC(C)C)NC(=O)[C@@H](NC(=O)[C@H](CCCCN)NC(=O)[C@H](CC(C)C)NC(=O)[C@H](C)NC(=O)[C@H](CCCCN)NC(=O)[C@H](Cc1c[nH]cn1)NC(=O)[C@H](CCC(=O)O)NC(=O)[C@@H](N)CCCNC(=N)N)[C@@H](C)O)[C@@H](C)CC)[C@@H](C)CC)C(N)=O [C12-ER40] (H-REHKALKTLGIIC(Dodecyl)-NH2) | 3 to 10 µM | 3 to 10 µM | – | – |
| CC[C@H](C)[C@H](N)C(=O)N[C@@H](CC(N)=O)C(=O)N[C@@H](Cc1ccc(O)cc1)C(=O)N[C@@H](CCCCN)C(=O)N[C@@H](C)C(=O)N[C@@H](CC(C)C)C(=O)N[C@@H](C)C(=O)N[C@@H](C)C(=O)N[C@@H](CC(C)C)C(=O)N[C@@H](C)C(=O)N[C@@H](CCCCN)C(=O)N[C@@H](CCCCN)C(=O)N[C@H](C(=O)N[C@@H](CC(C)C)C(N)=O)[C@@H](C)CC [ER13] | 3 to 10 µM | – | 3 to 10 µM | – |
| CC[C@H](C)[C@H](N)C(=O)N[C@@H](CC(N)=O)C(=O)N[C@@H](CC(C)C)C(=O)N[C@@H](CCCCN)C(=O)N[C@@H](C)C(=O)N[C@@H](CC(C)C)C(=O)N[C@@H](C)C(=O)N[C@@H](C)C(=O)N[C@@H](CC(C)C)C(=O)N[C@@H](C)C(=O)N[C@@H](CCCCN)C(=O)N[C@@H](CCCCN)C(=O)N[C@@H](CC(C)C)C(=O)N[C@@H](CC(C)C)C(N)=O [MAS03] | 3 to 10 µM | – | 10 to 30 µM | – |
| CC[C@H](C)[C@H](N)C(=O)N[C@@H](CC(N)=O)C(=O)N[C@@H](CC(C)C)C(=O)N[C@@H](CCCCN)C(=O)N[C@@H](C)C(=O)N[C@@H](CC(C)C)C(=O)N[C@@H](C)C(=O)N[C@@H](C)C(=O)N[C@@H](CC(C)C)C(=O)N[C@@H](C)C(=O)N[C@@H](CCCCN)C(=O)N[C@@H](CCCCN)C(=O)N[C@@H](C)C(=O)N[C@@H](CC(C)C)C(N)=O [MAS05, INLKALAALAKKAL] | 10 to 30 µM | – | 10 to 30 µM | – |
| CC[C@H](C)[C@H](N)C(=O)N[C@@H](CC(N)=O)C(=O)N[C@@H](CC(C)C)C(=O)N[C@@H](CCCCN)C(=O)N[C@@H](C)C(=O)N[C@@H](CC(C)C)C(=O)N[C@@H](C)C(=O)N[C@@H](C)C(=O)N[C@@H](CC(C)C)C(=O)N[C@@H](C)C(=O)N[C@@H](CCCCN)C(=O)N[C@@H](CCCCN)C(=O)N[C@@H](CCCCN)C(=O)N[C@@H](CC(C)C)C(N)=O [MAS06] | 30 to 100 µM | – | 30 to 100 µM | – |
| CISRASKSRIKKDKKEPVAIL-NH2 [ER44] | < 3 µM | 30 to 100 µM | – | – |
| CISRASKSRIKKDKKIL-NH2 [ER45] | < 3 µM | 3 to 10 µM | – | – |
| CIYRETENRARELAALQGSET-NH2 [ER32] | > 100 µM | > 100 µM | – | – |
| CIYRETENRARELAALQGSETIL-NH2 [ER33] | > 100 µM | > 100 µM | – | – |
| CLLKALAALAKALL-NH2 [ER30] | 3 to 10 µM | – | 3 to 10 µM | – |
| CNYKALAALAKALL-NH2 [ER16] | 3 to 10 µM | – | 10 to 30 µM | – |
| CPLSYRAKRTPRRAALM-NH2 [ER38] | 3 to 10 µM | 30 to 100 µM | – | – |

| Compound | EC50 [1] | EC50 [3, 4] | EC50 ([3]; Table IV) | also measured |
| --- | --- | --- | --- | --- |
| CVFQVAKRQLQKIDKVL-NH2 [ER36] | 10 to 30 µM | 30 to 100 µM | – | – |
| CVYIVAKRTTKNLEAGVMKEIL-NH2 [ER34] | 30 to 100 µM | 30 to 100 µM | – | – |
| CVYIVAKRTTKNLEIL-NH2 [ER35] | 10 to 30 µM | > 100 µM | – | – |
| CVYREAKEQIRKIDR-NH2 [ER43] | > 100 µM | > 100 µM | – | – |
| CVYREAKEQIRKIDRVL-NH2 [ER18] | 30 to 100 µM | > 100 µM | – | – |
| CVYREAKEQIRKIL-NH2 [ER19] | > 100 µM | > 100 µM | – | – |
| CVYVVAKRESRGLKIL-NH2 [ER47] | 30 to 100 µM | > 100 µM | – | – |
| CVYVVAKRESRGLKSGLKTDIL-NH2 [ER46] | 30 to 100 µM | > 100 µM | – | – |
| IKWKAILDAVKKVL-NH2 [MP-A, reference compound] | 3 to 10 µM | – | 3 to 10 µM | – |
| ILLKALAALAKALL-NH2 [ER21] | 3 to 10 µM | – | 3 to 10 µM | – |
| INAKALAALAKKLL-NH2 [MAS21] | 10 to 30 µM | – | 10 to 30 µM | – |
| INFKALAALAKKLL-NH2 [MAS22] | 10 to 30 µM | – | 3 to 10 µM | – |
| INLAALAALAKALL-NH2 [ER4] | 3 to 10 µM | – | 3 to 10 µM | – |
| INLAALAALAKKLL-NH2 [Mas19] | 3 to 10 µM | – | 3 to 10 µM | – |
| INLKAAAALAKKLL-NH2 [MAS16] | 10 to 30 µM | – | 3 to 10 µM | – |
| INLKAFAALAKKLL-NH2 [MAS23] | 10 to 30 µM | – | 3 to 10 µM | – |
